From patent publication US11925629B2, “Heterocyclic inhibitors of ERK1 and ERK2 and their use in the treatment of cancer” (Asana Biosciences, LLC, priority 2015, dated 2024) come the findings set out here.

pIC50: −log10 of the molar value. Like-named read-outs stand apart in the source and are kept apart here.

What all share (format): cell-based, human
Assay [1] concerns HT-29 (colorectal carcinoma, B-RafV600E) cells. Put plainly: Cell proliferation (Alamar Blue) assay, HT-29. The conditions noted are these: Homo sapiens, HT-29, HT29 cells. In outline: (§1)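 Fluorescence read-out (ex 540 nm, em 590 nm) after 1-3 h with 1× Alamar Blue, following 72 h compound exposure at 37° C./5% CO2. Compounds tested at typically 0.0005 to 10 uM, 3-fold steps; IC50 by sigmoidal dose-response (variable slope).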
On the technique in general: Alamar Blue is a resazurin reagent that responds to reducing activity.

The test system of assay [2] is HCT116 (colorectal carcinoma, K Ras G13D) cells. Nature of the assay: Cell proliferation (Alamar Blue) assay, HCT116. The conditions noted are these: Homo sapiens, HCT-116, HCT116 cells. An outline of the steps: as §1
In assay [3] the test system is phosphorylation of RSK1(S380) (the downstream target of ERK1/2). Nature of the assay: Phospho-RSK1(S380) ELISA assay in HT-29 cells. Particulars: Homo sapiens, HT-29, HT29 cells, read-out: Mechanistic Cell Assay RSK1 Phos HT29 IC50. An outline of the steps: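 IC50 values derive from a variable-slope sigmoidal fit of sandwich-ELISA signal (450 nm) for RSK1 Ser380 phosphorylation. The cells were B-RafV600E HT-29 colorectal line, exposed to serially diluted compound for 2 h after overnight seeding, then lysed at 4° C.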

As usually defined, the pIC50 is the negative decadic logarithm of the IC50, by convention in mol/L. With `Cc1cnc(NC2CCOCC2)nc1-n1cnc(C(=O)NCc2cccc(Cl)c2CN)c1` [Example 285, N-(2-(aminomethyl)-3-chlorobenzyl)-1-(5-methyl-2-((tetrahydro-2H-pyran-4-yl)amino)pyrimidin-4-yl)-1H-imidazole-4-carboxamide], the pIC50 in assay [1] was ≥ 7.00; in assay [2] it was 6.60 to 7.00; in assay [3] (phospho-RSK1(S380)) it was ≥ 7.00.

Consider `Cc1cnc(NC2CCC(F)(F)CC2)nc1-n1cnc(C(=O)N[C@H](CN)c2cccc(Cl)c2)c1` [Example 286, (S)-N-(2-amino-1-(3-chlorophenyl)ethyl)-1-(2-((4,4-difluorocyclohexyl)amino)-5-methylpyrmidin-4-yl)-1H-imidazole-4-carboxamide], for which the pIC50 in assay [1], in assay [2] and in assay [3] (phospho-RSK1(S380)) was ≥ 7.00 in each case.

As to `Cc1cnc(NC2CCOCC2)nc1-n1cnc(C(=O)NCc2ccccc2CO)c1` [Example 287, N-(2-(hydroxymethyl)benzyl)-1-(5-methyl-2-((tetrahydro-2H-pyran-4-yl)amino)pyrimidin-4-yl)-1H-imidazole-4-carboxamide], the results for the pIC50 in assay [1], in assay [2] and in assay [3] (phospho-RSK1(S380)) were ≥ 7.00, 6.30 to 6.60 and 5.60 to 6.30, respectively.

In the case of `Cc1cnc(NC2CC(F)(F)C2)nc1-n1cnc(C(=O)N[C@H](CN)c2cc(F)cc(Cl)c2)c1` [Example 288, (S)-N-(2-amino-1-(3-chloro-5-fluorophenyl)ethyl)-1-(2-((3,3-difluorocyclobutyl)amino)-5-methylpyrimidin-4-yl)-1H-imidazole-4-carboxamide], the results for the negative logarithm of the IC50 (pIC50) in assay [1], in assay [2] and in assay [3] (phospho-RSK1(S380)) were ≥ 7.00, ≥ 7.00 and 6.60 to 7.00, respectively.

For `Cc1cnc(NC2CCOCC2)nc1-n1cnc(C(=O)N[C@H](CNCc2ccc[nH]2)c2cccc(Cl)c2)c1` [Example 306, (S)-N-(2-(((1H-pyrrol-2-yl)methyl)amino)-1-(3-chlorophenyl)ethyl)-1-(5-methyl-2-((tetrahydro-2H-pyran-4-yl)amino)pyrimidin-4-yl)-1H-imidazole-4-carboxamide], the figures for the negative-log IC50 (pIC50) in assay [1], in assay [2] and in assay [3] (phospho-RSK1(S380)) were ≥ 7.00, ≥ 7.00 and 6.60 to 7.00, respectively.

For `Cc1cnc(NC2CCOCC2)nc1-n1cnc(C(=O)N[C@H](CNC2CCOCC2)c2cccc(Cl)c2)c1` [Example 308, (S)-N-(1-(3-chlorophenyl)-2-((tetrahydro-2H-pyran-4-yl)amino)ethyl)-1-(5-methyl-2-((tetrahydro-2H-pyran-4-yl)amino)pyrimidin-4-yl)-1H-imidazole-4-carboxamide], the pIC50 was < 5.60 in assay [1], 6.30 to 6.60 in assay [2] and 5.60 to 6.30 in assay [3].

In the case of `Cc1cnc(NC2CCOCC2)nc1-n1cnc(C(=O)NCc2cccc(Cl)c2F)c1` [Example 309, N-(3-chloro-2-fluorobenzyl)-1-(5-methyl-2-((tetrahydro-2H-pyran-4-yl)amino)pyrimidin-4-yl)-1H-imidazole-4-carboxamide], the figures for the negative logarithm of the IC50 (pIC50) in assay [1], in assay [2] and in assay [3] were 6.30 to 6.60, 5.60 to 6.30 and 5.60 to 6.30, respectively.

As for `Cc1cnc(N[C@H]2CCOC2)nc1-n1cnc(C(=O)NCc2cccc(C#N)c2)c1` [Example 310, (S)-N-(3-cyanobenzyl)-1-(5-methyl-2-((tetrahydrofuran-3-yl)amino)pyrimidin-4-yl)-1H-imidazole-4-carboxamide], the pIC50 in assay [1], in assay [2] and in assay [3] was < 5.60 each time.

Turning to `Cc1cnc(N[C@H]2CCOC2)nc1-n1cnc(C(=O)NCc2cccc(Cl)c2)c1` [Example 318, (S)-N-(3-chlorobenzyl)-1-(5-methyl-2-((tetrahydrofuran-3-yl)amino)pyrimidin-4-yl)-1H-imidazole-4-carboxamide], the values for the pIC50 in assay [1], in assay [2] and in assay [3] were 5.60 to 6.30, < 5.60 and 5.60 to 6.30, respectively.

For the compound `Cc1cnc(NC2CCOCC2)nc1-n1cnc(C(=O)N[C@H](CN(C)C)c2cccc(Cl)c2)c1` [Example 320, (S)-N-(1-(3-chlorophenyl)-2-(dimethylamino)ethyl)-1-(5-methyl-2-((tetrahydro-2H-pyran-4-yl)amino)pyrimidin-4-yl)-1H-imidazole-4-carboxamide], the results for the negative logarithm of the IC50 (pIC50) in assay [1], in assay [2] and in assay [3] were 6.30 to 6.60, 5.60 to 6.30 and 6.30 to 6.60, respectively.

Regarding `CNC[C@@H](NC(=O)c1cn(-c2nc(NC3CCOCC3)ncc2C)cn1)c1cccc(Cl)c1` [Example 326, (S)-N-(1-(3-chlorophenyl)-2-(methylamino)ethyl)-1-(5-methyl-2-((tetrahydro-2H-pyran-4-yl)amino)pyrimidin-4-yl)-1H-imidazole-4-carboxamide], the pIC50 in assay [1], in assay [2] and in assay [3] was ≥ 7.00 throughout.

As to `Cc1cnc(NC2CCOCC2)nc1-n1cnc(C(=O)NCc2nc(Cl)sc2C)c1` [Example 328, N-((2-chloro-5-methylthiazol-4-yl)methyl)-1-(5-methyl-2-((tetrahydro-2H-pyran-4-yl)amino)pyrimidin-4-yl)-1H-imidazole-4-carboxamide], the pIC50 in assay [1] is 6.30 to 6.60; in assay [2], < 5.60; in assay [3] it was 6.30 to 6.60.

On to `Cc1cnc(Nc2ccc(F)cc2Cl)nc1-n1cnc(C(=O)NCc2cccc(Cl)c2CO)c1` [Example 329, N-(3-chloro-2-(hydroxymethyl)benzyl)-1-(2-((2-chloro-4-fluorophenyl)amino)-5-methylpyrimidin-4-yl)-1H-imidazole-4-carboxamide], for which the values for the pIC50 in assay [1], in assay [2] and in assay [3] were ≥ 7.00, 6.30 to 6.60 and ≥ 7.00, respectively.

Consider `Cc1cnc(NC2CCOCC2)nc1-n1cnc(C(=O)NCc2ccc(Cl)c(CO)c2)c1` [Example 330, N-(4-chloro-3-(hydroxymethyl)benzyl)-1-(5-methyl-2-((tetrahydro-2H-pyran-4-yl)amino)pyrimidin-4-yl)-1H-imidazole-4-carboxamide], for which the negative logarithm of the IC50 (pIC50) in assay [1] is 5.60 to 6.30; in assay [2], < 5.60; in assay [3] it was 6.30 to 6.60.

As to `Cc1cnc(N[C@H]2CCOC2)nc1-n1cnc(C(=O)NCc2cccc(Cl)c2C)c1` [Example 331, (S)-N-(3-chloro-2-methylbenzyl)-1-(5-methyl-2-((tetrahydrofuran-3-yl)amino)pyrimidin-4-yl)-1H-imidazole-4-carboxamide], the results for the negative logarithm of the IC50 (pIC50) in assay [1], in assay [2] and in assay [3] were 5.60 to 6.30, 5.60 to 6.30 and ≥ 7.00, respectively.

For `Cc1cnc(Nc2ccc3c(c2)OC(F)(F)O3)nc1-n1cnc(C(=O)NCc2cccc(Cl)c2CO)c1` [Example 332, N-(3-chloro-2-(hydroxymethyl)benzyl)-1-(2-((2,2-difluorobenzo[d][1,3]dioxol-5-yl)amino)-5-methylpyrimidin-4-yl)-1H-imidazole-4-carboxamide], the values for the pIC50 in assay [1], in assay [2] and in assay [3] were 5.60 to 6.30, 6.30 to 6.60 and ≥ 7.00, respectively.

As for `Cc1cnc(NC2CCOCC2)nc1-n1cnc(C(=O)N[C@H](CNCCO)c2cccc(Cl)c2)c1` [Example 333, (S)-N-(1-(3-chlorophenyl)-2-((2-hydroxyethyl)amino)ethyl)-1-(5-methyl-2-((tetrahydro-2H-pyran-4-yl)amino)pyrimidin-4-yl)-1H-imidazole-4-carboxamide], the pIC50 in assay [1], in assay [2] and in assay [3] was ≥ 7.00 throughout.

Regarding `Cc1cnc(NC2CCOCC2)nc1-n1cnc(C(=O)NCc2cccc(Cl)c2CCO)c1` [Example 334, N-(3-chloro-2-hydroxyethylbenzyl)-1-(5-methyl-2-((tetrahydro-2H-pyran-4-yl)amino)pyrimidin-4-yl)-1H-imidazole-4-carboxamide], the negative logarithm of the IC50 (pIC50) in assay [1], in assay [2] and in assay [3] was ≥ 7.00 each time.

In the case of `Cc1cnc(NC2CCOCC2)nc1-n1cnc(C(=O)NCc2cccc(CO)c2Cl)c1` [Example 335, N-(2-chloro-3-(hydroxymethyl)benzyl)-1-(5-methyl-2-((tetrahydro-2H-pyran-4-yl)amino)pyrimidin-4-yl)-1H-imidazole-4-carboxamide], the pIC50 in assay [1] was 6.30 to 6.60; in assay [2], < 5.60; in assay [3], 6.60 to 7.00.

Turning to `CC[C@H](CO)Nc1ncc(C)c(-n2cnc(C(=O)NCc3cccc(Cl)c3CO)c2)n1` [Example 336, (R)-N-(3-chloro-2-(hydroxymethyl)benzyl)-1-(2-((1-hydroxybutan-2-yl)amino)-5-methylpyrimidin-4-yl)-1H-imidazole-4-carboxamide], the figures for the negative logarithm of the IC50 (pIC50) in assay [1], in assay [2] and in assay [3] were ≥ 7.00, 6.60 to 7.00 and ≥ 7.00, respectively.

On to `Cc1cnc(NC2CCOCC2)nc1-n1cnc(C(=O)N[C@H](CNCC(C)(C)C)c2cccc(Cl)c2)c1` [Example 337, (S)-N-(1-(3-chlorophenyl)-2-(neopentylamino)ethyl)-1-(5-methyl-2-((tetrahydro-2H-pyran-4-yl)amino)pyrimidin-4-yl)-1H-imidazole-4-carboxamide], for which the pIC50 in assay [1] is 6.60 to 7.00; in assay [2] it was 5.60 to 6.30; in assay [3], 6.60 to 7.00.

As to `Cc1cnc(N[C@H]2CCOC2)nc1-n1cnc(C(=O)NCc2cccc(CO)c2Cl)c1` [Example 338, (S)-N-(2-chloro-3-(hydroxymethyl)benzyl)-1-(5-methyl-2-((tetrahydrofuran-3-yl)amino)pyrimidin-4-yl)-1H-imidazole-4-carboxamide], the negative-log IC50 (pIC50) in assay [1] is < 5.60; in assay [2], 5.60 to 6.30; in assay [3] it was 5.60 to 6.30.
